# In PMC4658348 (ACS chemical biology, 2015):
# How the values were obtained:
# Format in all cases: biochemical
# [1] = target: T1, vacuolar-type ATPase (V-ATPase) (Saccharomyces cerevisiae, UniProt P25515+P32563); assay: enzyme-coupled ATPase assay
# human HSP90α = human HSP90α (Homo sapiens, UniProt P07900); assay: ATP/NADH-coupled ATPase assay
# [2] = target: T1, vacuolar-type ATPase (V-ATPase); assay: enzyme-coupled ATPase assay; remark: listed apart in the source
SMILES,enzyme-coupled ATPase assay (NADH loss) with purified V-ATPase [1],IC50 (human HSP90α),IC50 [2]
CO/C1=C\C(C)=C\[C@@H](C)[C@@H](O)[C@@H](C)C/C(C)=C/C=C/[C@H](OC)[C@@H]([C@@H](C)[C@@H](O)[C@H](C)[C@@]2(O)C[C@@H](O)[C@H](C)[C@@H](C(C)C)O2)OC1=O [bafilomycin A1],"Oxohygrolidin (black bar) inhibited V-ATPase comparable to the plecomacrolides, bafilomycin A1(dotted bar), and concanamycin A (hatched bar)",,
CC[C@@H](O)[C@H](C)/C=C/C(=O)[C@@H](C)[C@H](O)[C@H](C)[C@H]1OC(=O)/C(C)=C/C(C)=C/[C@@H](C)[C@@H](O)[C@@H](C)C/C(C)=C/C=C/[C@@H]1OC [oxohygrolidin],,~50 µM,~0.25 µM
